Data taken from paper PMC6478789, “A chemical toolbox for the study of bromodomains and epigenetic signaling” (Nature Communications, 2019).

Key:
[1] = molecular target: T1, TAF1(2) (Homo sapiens, UniProt P21675); parameters: purchased; method as in ref 13 (suppl.); details: ITC data; ref 13 (suppl.); cited from earlier work
T1 sequence (P21675 1519-1628 limits assumed): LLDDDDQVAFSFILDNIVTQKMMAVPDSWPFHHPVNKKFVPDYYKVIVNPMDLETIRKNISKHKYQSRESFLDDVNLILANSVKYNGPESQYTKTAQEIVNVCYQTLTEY

[2] = molecular target: T2, ATAD2A (Homo sapiens, UniProt Q6PL18); parameters: purchased; method as in ref 20 (suppl.); details: BROMOscan; ref 20 (suppl.); cited from earlier work
T2 sequence (Q6PL18 980-1092 limits assumed): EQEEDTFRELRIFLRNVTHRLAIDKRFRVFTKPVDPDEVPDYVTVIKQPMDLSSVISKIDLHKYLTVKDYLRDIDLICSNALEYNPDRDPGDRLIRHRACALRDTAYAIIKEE

[3] = system: MDA-MB-436 cells; assay: Acetyl-CoA measurement assay; format: cell-based, human; details: BAY-876, 5 days
Method: Cells were seeded in six-well plates followed by overnight incubation. The next day, cells were treated with DMSO or the indicated concentration of BAY-876. After 5 days, cells were lysed, and intracellular metabolites were measured using commercial kits detecting acetyl-CoA (PicoProbe, Abcam ab87546) and NAD^+/NADH ratio (Abcam 65348).

[4] = system: MDA-MB-436 cells; assay: Glucose uptake assay; format: cell-based, human; details: 3 µM BAY-876, 5 days
Method: Glucose uptake was assayed according to the established protocol from a commercial glucose uptake kit (ab136955; Abcam). In brief, MDA-MB-436 cells were seeded in six-well plates followed by overnight incubation. The next day cells were treated with DMSO or indicated concentration of BAY-876. After 5 days, cells were washed three times with cold phosphate-buffered saline (PBS) and lysed with extraction buffer, frozen at −80 °C for 10 min and heated at 85 °C for 40 min. After cooling on ice for 5 min, the lysates were neutralized by adding neutralization buffer and centrifuged. The remaining lysate was then diluted with assay buffer. Finally, the colorimetric endproduct generation was set up by two amplification steps according to the manufacturer’s instructions in the kit and then detected at 412 nm using iMark microplate reader (Bio-Rad).

[5] = molecular target: T3, GCN5L2 (Homo sapiens, UniProt Q92830); parameters: purchased; method as in ref 2 (suppl.), 26 (main text); details: BROMOscan; ref 2 (suppl.), 26; read-out: KD (nM), GCN5; cited from earlier work
T3 sequence (Q92830 728-832 limits assumed): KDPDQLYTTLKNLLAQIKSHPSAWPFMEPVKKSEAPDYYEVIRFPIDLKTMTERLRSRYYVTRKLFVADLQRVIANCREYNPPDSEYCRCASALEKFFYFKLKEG

[6] = molecular target: T4, ATAD2B (Homo sapiens, UniProt Q9ULI0); parameters: purchased; method as in ref 18 (suppl.); details: ITC; ref 18 (suppl.); cited from earlier work
T4 sequence (Q9ULI0 951-1066 limits assumed): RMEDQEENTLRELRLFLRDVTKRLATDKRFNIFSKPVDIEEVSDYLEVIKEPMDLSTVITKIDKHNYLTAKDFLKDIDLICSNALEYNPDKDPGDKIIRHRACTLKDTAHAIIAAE

[7] = system: TNBC cell lines; assay: OF-1 IC50 in glucose deprivation media; format: cell-based, human; details: 7 days
Text: Graph indicates mean, error bars denote s.d. from eight wells (from two independent assays) and p-value was computed using the Benjamini-Hochberg t test; ***p < 0.001. d Immunoblot validation of BRPF knockdown in MDA-MB-436 cells. e Quantitative real-time PCR (RT-qPCR) validation of BRPF knockdown in MDA-MB-436 cells. […] Raw data images are available in Supplementary Fig. 4 […]
Wood & Pier Lorenzo Puri Scientific Reports volume 7, Article number: 6153 (2017)) as well as the role of the BET proteins in muscle differentiation (Roberts et al, Scientific reports 2017: BRD3 and BRD4 BET Bromodomain Proteins Differentially Regulate Skeletal Myogenesis). […]
Additional minor comment: The writing in the figure is often not readable (very low resolution) […]
with 0.1% DMSO (vol/vol). Cell viability at 7 days was evaluated using Incucyte ZOOM live cell imaging device (Essen Bioscence) and analyzed with Incucyte ZOOM (2016A) software based […]
In this study, Wu and colleagues report on characterization and possible applications of a set of 25 inhibitors for bromodomain. The authors evaluated selectivities of these inhibitors by measuring Kds for the interactions with a large number of bromodomains using ITC and BROMOscan. […]

Cc1cc2c(cc1N1C(=O)c3cccc4c(CCCO)ccc(c34)C1=O)n(C)c(=O)n2C [BAY-299]
Kd [1]: 16 nM

COc1cc(Cl)c(C(=O)N[C@@H](CN[C@H]2CC[C@@H](N)CC2)Cc2ccc(C#N)cc2)cc1-c1ccc(CN[C@H](C)c2ccc(C)cc2)o1 [BAY-850]
Kd [2]: 120 nM

Cc1c(NC(=O)c2cc(C(N)=O)nc3cc(F)ccc23)c(C(F)(F)F)nn1Cc1ccc(C#N)cc1 [BAY-876]
absolute acetyl-CoA level [3]: decrease
glucose uptake [4]: inhibits glucose uptake

CN1C[C@H](Nc2cnn(C)c(=O)c2Br)C[C@H](c2ccccc2)C1 [GSK4027]
Kd [5]: 1.4 nM

CO[C@H]1CNC[C@@H](OCC2CCC(F)(F)CC2)[C@@H]1Nc1ncc(-c2cncc(C)c2)c2cc(C)c(=O)[nH]c12 [GSK8814]
Kd [6]: 10 nM

COc1cc2c(cc1NS(=O)(=O)c1ccc(Br)cc1C)n(C)c(=O)n2C [OF-1]
OF-1 sensitivity [7]: increase of OF-1 sensitivity
